Experimental data published in patent US20100048462A1, “TRUNCATED PTH PEPTIDES WITH A CYCLIC CONFORMATION” (Zealand Pharma A/S, priority 2006, published 2010).
Entries after “also recorded” stand apart in the source; their conditions may differ. Bridge positions count the residues as written; N and C are the ends. Square brackets hold non-standard residues; d marks the D form. Peptide text beside a SMILES is read from it. I, II: the chains in the order shown. hArg = N=C(N)NCCCC[C@H](N)C(=O)O; Ac5c = NC1(C(=O)O)CCCC1; Aib = CC(C)(N)C(=O)O

Key:
[1] = test system: ovariectomized (OVX) rat; assay: OVX rat model, bone mineral density by DEXA; type: in vivo; set-up: increase in BMD in the femoral shaft compared to vehicle-treated OVX animals: unit not given here; settings: for BMD proximal tibia (18% bone loss in OVX animals): FIG. 6, SEQ ID NO: 19 20-320, SEQ ID NO: 33 5 nmol/kg; for BMD proximal tibia (18% bone loss in OVX animals) / BMD in lumbar vertebrae L1-L2 relative to vehicle-treated OVX and sham animals: s.c. 6 weeks; for BMD in lumbar vertebrae L1-L2 relative to vehicle-treated OVX and sham animals: FIG. 7; for BMD compared to vehicle-treated OVX animals: all doses; for increase in BMD in the femoral shaft compared to vehicle-treated OVX animals / BMD in the femoral shaft: FIG. 9; for BMD in the femoral shaft: site rich in cortical bone
From the text: The ovariectomiced(OVX) rat may be used to test the effect of the PTH analogues on osteopenia/osteoporosis in vivo. The OVX rat develop osteopenia due to ovarian hormone deficiency. Osteopenia can be detected as early as 14 days post OVX, increase for the next 100 days and then stabilized (Wronski T J et al., Calcif. Tissue Int., 43(3): 179-183, 1988). The OVX rat model is considered the “golden standard” by both authorities and industry as a model for osteoporosis (Peter C, Rodan G A. Preclinical safety profile of alendronate. Int j Clin Pract Suppl 1999; 101:3-8, and Stewart A F, Cain R L, Burr D B, Jacob D, Turner C H, Hock J M).
One hundred and seventy-eight female Fisher rats were used for the experiment. Initially the animals were housed in Macrolon type 3 cages (2 rats/cage) under controlled conditions (20° C., 55-85% humidity) following a 12:12-hrs light/dark cycle with light on at 6 am. The animals were fed ad libitum with standard Altromin No. 1324 diet (Chr. Petersen, Ringsted, Denmark). The animals had free access to drinking water (domestic quality tap water added citric acid to pH≈3). At the time of inclusion the animals were 6 months old.
The week before OVX the animals were stratified according to body weight into two groups that were subjected to either OVX (140 animals) or sham operation (38 animals). Rats were anaesthetized with Hypnorm-Dormicum and the ovariectomy was performed through a midline laparotomy. Sham-operated animals were subjected to midline laparotomy, and the ovaries were exposed but not removed (sham). This group served as an age matched non-osteoporotic control group. A microchip was implanted into each rat during surgery, in order to allow identification of the animals.
To allow osteopenia to develop before treatment start, animals were housed for 7 weeks (pre-treatment period) without pharmacological treatment. At the end of the pre-treatment period, sham- and OVX-operated rats were stratified according to bodyweight and divided into six groups of 13-20 animals each (Table 7). At this point, one OVX group (N=20) and one sham group (N=20) were sacrificed. These control groups established baseline levels of bone mineral density (BMD). Furthermore, samples were stored for possible later analysis of bone markers, bone strength, histomorphometry and μCT scans.
For the following 6 weeks one sham group and one OVX group were subjected to vehicle administration (40 mM sodium acetate, 45 mM histidine and 3.9% mannitol, pH 5.5, 300 mOsm/kg). Five OVX groups were treated with increasing doses of the cyclic PTH(1-17) analogue SEQ ID NO: 19. Another OVX group was treated with SEQ ID NO: 33 (Table 7). All drugs were given as s.c. injections. After 6 weeks of treatment the animals were sacrificed. Spine, tibia and femur were collected for analysis of BMD by DEXA-scan and bone samples were stored for later bone strength measurements.
Lumbar vertebrae (L4-L5-L6-S1), left femur and tibia were collected, cleaned, packed in saline moistened gaze in a tube and stored at −20° C. for later ex vivo bone strength measurements. Right femur and tibia as well as lumbar vertebrae (T13-L1-L2-L3) and caudal vertebrae (S2-S3-C1-C2-C3) were collected, cleaned and stored in 70% ethanol for analysis of bone mineral density (BMD) and possible later histomorphometry and/or μCT scanning.
Ex vivo BMD measurements were performed at the end of the study using a Lunar Piximus II densitometer (GE Healthcare, Chalfont St. Giles, UK) with a precision of 1.5%. Calibration of the instrument was performed with an aluminium/Lucite phantom.
Tibiae, femora and lumbar (L1-L2) and sacral/caudal (S3-C1) spine fragments were placed on the imaging positioning tray and scanned four times. All specimens were placed in a similar orientation for correct comparison. Regions of interest (ROI) were generated on the scans using the Piximus image analysis software provided with the instrument. […]

[2] = biological target: CYP2D6 (Homo sapiens, UniProt P10635); assay: CYP2D6 inhibition in pooled human liver microsomes; type: in vitro ADME; set-up: Pooled human liver microsomes (HLM, final concentration 0.05 mg protein/mL); tissue BD Biosciences 452161; host or cells: pooled human liver microsomes
Procedure, shortened: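 Pooled HLM (0.05 mg/mL) in 0.1 M KPi pH 7.4 with 5 μM dextromethorphan and 10 μM test compound, preincubated 5 min at 37 °C, then started with NADPH-regenerating system for 5 min. Dextrorphan quantified by LC/MS/MS; activity expressed as % of vehicle; <70% considered significant.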

Sequence of CYP2D6 (P10635 whole entry): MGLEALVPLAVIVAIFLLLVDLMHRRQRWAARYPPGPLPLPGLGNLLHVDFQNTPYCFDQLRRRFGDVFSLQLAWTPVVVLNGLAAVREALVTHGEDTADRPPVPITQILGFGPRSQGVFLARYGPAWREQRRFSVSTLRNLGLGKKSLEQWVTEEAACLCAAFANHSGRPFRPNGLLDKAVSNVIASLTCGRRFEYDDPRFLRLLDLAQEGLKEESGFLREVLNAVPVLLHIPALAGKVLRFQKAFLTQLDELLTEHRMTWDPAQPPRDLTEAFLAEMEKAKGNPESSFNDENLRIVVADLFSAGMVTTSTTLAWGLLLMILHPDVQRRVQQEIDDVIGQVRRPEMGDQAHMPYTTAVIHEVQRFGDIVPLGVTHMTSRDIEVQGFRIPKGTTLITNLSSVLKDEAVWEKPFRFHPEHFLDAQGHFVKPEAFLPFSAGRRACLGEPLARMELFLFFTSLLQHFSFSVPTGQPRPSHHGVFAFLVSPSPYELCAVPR

Row | SMILES | bone mineral densities at the lowest dose ([1]; 20 nmol/kg/d) | bone mineral density versus vehicle-treated ovariectomized rats, regardless of site ([1]; 20 nmol/kg/d to 320 nmol/kg/d s.c., 6 weeks) | BMD proximal tibia (18% bone loss in OVX animals) ([1]; OVX rats) | BMD in lumbar vertebrae L1-L2 relative to vehicle-treated OVX and sham animals ([1]; OVX rats) | BMD compared to vehicle-treated OVX animals ([1]; FIG. 8) | BMD over sham control levels ([1]; FIG. 8, doses higher than 20 nmol/kg/d) | increase in BMD in the femoral shaft compared to vehicle-treated OVX animals [1] | BMD in the femoral shaft [1] | bone-anabolic activity in cortical and trabecular bone ([1]; OVX rats) | bone mineral density versus vehicle-treated sham-operated rats ([1]; doses greater than 20 nmol/kg/d) | effect on CYP2D6 activity in words [2] | CYP2D6 activity (% of vehicle) ([2]; 10 μM compound, dextrorphan formation rate) | bone mineral density versus vehicle-treated ovariectomized rats, all sites tested ([1]; 5 nmol/kg/d s.c., 6 weeks)
1 | CC[C@H](C)[C@H](NC(=O)[C@H](CCC(=O)O)NC(=O)C(C)(C)NC(=O)[C@@H](NC(=O)C1(N)CCCC1)C(C)C)C(=O)N[C@@H](CCC(N)=O)C(=O)N[C@@H](CC(C)C)C(=O)N[C@@H](CC(C)C)C(=O)N[C@@H](Cc1c[nH]cn1)C(=O)N[C@@H](CCC(N)=O)C(=O)N[C@@H](CCCCNC(=N)N)C(=O)N[C@@H](C)C(=O)N[C@H]1CCCCNC(=O)C[C@@H](C(N)=O)NC(=O)[C@H](CC(N)=O)NC(=O)[C@H](CC(C)C)NC(=O)[C@H](Cc2c[nH]c3ccccc23)NC1=O [SEQ ID NO: 19, H-Ac5c-Val-Aib-Glu-Ile-Gln-Leu-Leu-His-Gln-Har-Ala-Lys( )-Trp-Leu-Asn-Asp( )-NH2] (H-[Ac5c]V[Aib]EIQLLHQ[hArg]AKWLND-NH2; lactam 13-17) | at least normalization | significantly higher bone mineral density | completely reversed | improved | significantly increased | significantly increased over sham control levels | about 81 | improved | showed bone-anabolic activity | bone mineral densities higher than in vehicle-treated sham-operated rats | absence of any inhibitory effect on CYP2D6 activity | 90 % of vehicle | 
2 | CC[C@H](C)[C@H](NC(=O)[C@H](CCC(=O)O)NC(=O)C(C)(C)NC(=O)[C@@H](NC(=O)C1(N)CCCC1)C(C)C)C(=O)N[C@@H](CCC(N)=O)C(=O)N[C@@H](CC(C)C)C(=O)N[C@@H](CCSC)C(=O)N[C@@H](Cc1c[nH]cn1)C(=O)N[C@@H](CCC(N)=O)C(=O)N[C@@H](CCCCNC(=N)N)C(=O)N[C@@H](C)C(=O)N[C@H]1CCCCNC(=O)C[C@@H](C(N)=O)NC(=O)[C@H](CC(C)C)NC(=O)[C@H](Cc2c[nH]c3ccccc23)NC(=O)[C@@H](NC(=O)[C@H](C)NC(=O)[C@H](CCCCNC(=N)N)NC(=O)[C@H](CCC(N)=O)NC(=O)[C@H](Cc2c[nH]cn2)NC(=O)[C@H](CCSC)NC(=O)[C@H](CC(C)C)NC(=O)[C@H](CCC(N)=O)NC(=O)[C@@H](NC(=O)[C@H](CCC(=O)O)NC(=O)C(C)(C)NC(=O)[C@@H](NC(=O)C2(N)CCCC2)C(C)C)[C@@H](C)CC)CCCCNC(=O)C[C@@H](C(N)=O)NC(=O)[C@H](CC(C)C)NC(=O)[C@H](Cc2c[nH]c3ccccc23)NC1=O [SEQ ID NO: 33, (H-Ac5c-Val-Aib-Glu-Ile-Gln-Leu-Met-His-Gln-Har-Ala-Lys( )-Trp-Leu-Asp( )-NH2)2] (I: H-[Ac5c]V[Aib]EIQLMHQ[hArg]AKWLD-NH2 / II: H-[Ac5c]V[Aib]EIQLMHQ[hArg]AKWLD-NH2; amide I:13-II:16, I:16-II:13 (inferred)) |  |  | completely reversed | improved | significantly increased |  | about 81 | improved |  |  |  |  | significant increases; also recorded: significantly increased
